Test results as given in US20260285853A1, “COMPOUNDS AND METHODS FOR MODULATING SPLICING” (REMIX THERAPEUTICS INC., priority 2023, published 2026).

Columns and labels:
Assay type in all cases: cell-based
HTT mRNA [1] = test: Splicing RT-qPCR assay (THP), Table 2A; settings: Table 2A (THP); for AC50: AJ mRNA increase, read-out: HTT AJ (increase in alternative junction mRNA, AC50); for IC50: CJ mRNA decrease, read-out: HTT CJ (decrease in canonical junction mRNA, IC50)
MYB mRNA [2] = test: Splicing RT-qPCR assay (THP), Table 2A; settings: Table 2A (THP); for AC50: AJ mRNA increase, read-out: MYB AJ (increase in alternative junction mRNA, AC50); for IC50: CJ mRNA decrease, read-out: MYB CJ (decrease in canonical junction mRNA, IC50)
HTT mRNA [3] = test: Gene panel canonical junction qPCR assay, decrease in CJ mRNA, Table 3; settings: decrease in canonical junction (CJ) mRNA, gene panel qPCR, Table 3
Outline: (§1)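 A673 cells were plated, left to adhere for 24 h, then dosed; K562 cells were plated in 96- or 384-well format and dosed directly. Both were incubated 24 h at 37 °C with an 11-point 3-fold series (top 10 uM final). Canonical junction mRNA was then read by cDNA synthesis and qPCR.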

MYB mRNA [4] = test: as above; settings: decrease in canonical junction (CJ) mRNA, gene panel qPCR, Table 3
Outline: as §1

[5] = tested on: SH-SY5Y (human neuroblastoma) cells; test: Cell viability, Cell Titer Glo 2.0 assay; settings: read-out: Viability SHSY5Y.3 GI50
Outline: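 SH-SY5Y neuroblastoma cells are exposed to test compounds for 72 hours at 37 °C and 5% CO2, with final DMSO held at 0.1%. Cell viability is then measured with the CellTiter-Glo 2.0 assay.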

| SMILES | AC50 (HTT mRNA [1]) | IC50 (HTT mRNA [1]) | AC50 (MYB mRNA [2]) | IC50 (MYB mRNA [2]) | IC50 (HTT mRNA [3]) | IC50 (MYB mRNA [4]) | GI50 [5] |
| --- | --- | --- | --- | --- | --- | --- | --- |
| C=CCNC1CCN(c2ccc(C(=O)Nc3cn4cc(C)nc(C)c4c3OC)c3nn(C)cc23)CC1 [Compound 458, 4-[4-(allylamino)-1-piperidyl]-N-(8-methoxy-1,3-dimethyl-pyrrolo[1,2-a]pyrazin-7-yl)-2-methyl-indazole-7-carboxamide] | 1000 to 10000 nM | 1000 to 10000 nM | 1000 to 10000 nM | 1000 to 10000 nM | 1000 to 10000 nM | 1000 to 10000 nM | 1000 to 10000 nM |
| Cn1cc2cc(NC(=O)c3ccc(N4CCC(NC5CC5)CC4)c4cn(C)nc34)c(F)cc2n1 [Compound 459, 4-[4-(cyclopropylamino)-1-piperidyl]-N-(6-fluoro-2-methyl-indazol-5-yl)-2-methyl-indazole-7-carboxamide] | > 10000 nM | 1000 to 10000 nM | 100 to 1000 nM | 100 to 1000 nM | 1000 to 10000 nM | 100 to 1000 nM | 1000 to 10000 nM |
| COc1nc2nn(C)cc2cc1NC(=O)c1ccc(N2CCC(NC3CC3)CC2)c2cn(C)nc12 [Compound 460, 4-[4-(cyclopropylamino)-1-piperidyl]-N-(6-methoxy-2-methyl-pyrazolo[3,4-b]-pyridin-5-yl)-2-methyl-indazole-7-carboxamide] | 1000 to 10000 nM | 1000 to 10000 nM | 100 to 1000 nM | 100 to 1000 nM | 1000 to 10000 nM | 100 to 1000 nM | 1000 to 10000 nM |
| COc1c(NC(=O)c2ccc(N3CCC(NC4CC4)CC3)c3cn(C)nc23)cc2cn(C)nc2c1Cl [Compound 461, N-(7-chloro-6-methoxy-2-methyl-indazol-5-yl)-4-[4-(cyclopropylamino)-1-piperidyl]-2-methyl-indazole-7-carboxamide] | 100 to 1000 nM | 100 to 1000 nM | 100 to 1000 nM | 100 to 1000 nM | 100 to 1000 nM | 100 to 1000 nM | 100 to 1000 nM |
| Cc1cn2cc(NC(=O)c3ccc(N4CCC(NC5CC5)CC4)c4cn(C)nc34)nc2c(-c2cnoc2)n1 [Compound 462, 4-[4-(cyclopropylamino)-1-piperidyl]-N-(8-isoxazol-4-yl-6-methyl-imidazo[1,2-a]-pyrazin-2-yl)-2-methyl-indazole-7-carboxamide] | > 10000 nM | > 10000 nM | > 10000 nM | > 10000 nM | > 10000 nM | > 10000 nM | 1000 to 10000 nM |
| COc1cc2nn(C)cc2cc1NC(=O)c1c(O)cc(N2CCC(NC3CC3)CC2)c2cn(C)nc12 [Compound 463, 4-[4-(cyclopropylamino)-1-piperidyl]-6-hydroxy-N-(6-methoxy-2-methyl-indazol-5-yl)-2-methyl-indazole-7-carboxamide] | 1000 to 10000 nM | 1000 to 10000 nM | < 100 nM | < 100 nM | 1000 to 10000 nM | < 100 nM | 100 to 1000 nM |
| CCNCC1CCN(c2cc(F)c(C(=O)Nc3cc4cn(C)nc4cc3OC)c3nn(C)cc23)C1 (stereo not shown) [Compound 464, 4-(3-[(ethylamino)methyl]pyrrolidin-1-yl)-6-fluoro-N-(6-methoxy-2-methylindazol-5-yl)-2-methylindazole-7-carboxamide] | 100 to 1000 nM | 100 to 1000 nM | 100 to 1000 nM | 100 to 1000 nM | 100 to 1000 nM | 100 to 1000 nM | 100 to 1000 nM |
| Cc1cn2cc(NC(=O)c3c(F)cc(NCC4CCNCC4)c4cn(C)nc34)nc2c(C)n1 [Compound 465, N-(6,8-dimethylimidazo[1,2-a]pyrazin-2-yl)-6-fluoro-2-methyl-4-(4-piperidylmethylamino)indazole-7-carboxamide] | > 10000 nM | > 10000 nM | > 10000 nM | > 10000 nM | > 10000 nM | > 10000 nM | 100 to 1000 nM |
| COc1cc2nn(C)cc2cc1NC(=O)c1c(C2CC2)cc(N2CCC(NC3CC3)CC2)c2cn(C)nc12 [Compound 466, 6-cyclopropyl-4-[4-(cyclopropylamino)-1-piperidyl]-N-(6-methoxy-2-methyl-indazol-5-yl)-2-methyl-indazole-7-carboxamide] | > 10000 nM | > 10000 nM | > 10000 nM | > 10000 nM | > 10000 nM | > 10000 nM | 1000 to 10000 nM |
| Cn1cc2cc(NC(=O)c3c(F)cc(N4CCC(NC5CC5)CC4)c4cn(C)nc34)c(OC3CCOC3)cc2n1 (stereo not shown) [Compound 467, 4-[4-(cyclopropyl-amino)-1-piperidyl]-6-fluoro-2-methyl-N-(2-methyl-6-tetrahydrofuran-3-yloxy-indazol-5-yl)indazole-7-carboxamide] | 100 to 1000 nM | 100 to 1000 nM | < 100 nM | < 100 nM | 100 to 1000 nM | < 100 nM | 100 to 1000 nM |
| CCNC1CCN(c2cc(F)c(C(=O)Nc3cn4cc(C)nc(C)c4c3F)c3nn(C)cc23)CC1 [Compound 468, 4-[4-(ethylamino)-1-piperidyl]-6-fluoro-N-(8-fluoro-1,3-dimethyl-pyrrolo[1,2-a]pyrazin-7-yl)-2-methyl-indazole-7-carboxamide] | > 10000 nM | > 10000 nM | < 100 nM | < 100 nM | > 10000 nM | < 100 nM | 1000 to 10000 nM |
| Cc1cc2cc(NC(=O)c3ccc(N4CCC(NC5CC5)CC4)c4cn(C)nc34)n(C)c2c(C)n1 [Compound 469, 4-[4-(cyclopropyl-amino)-1-piperidyl]-2-methyl-N-(1,5,7-trimethyl-pyrrolo[2,3-c]-pyridin-2-yl)indazole-7-carboxamide] | 1000 to 10000 nM | 1000 to 10000 nM | 1000 to 10000 nM | 1000 to 10000 nM | 1000 to 10000 nM | 1000 to 10000 nM | 100 to 1000 nM |
| Cc1cn2cc(NC(=O)c3c(F)cc(N4CC5(CNC5)C4)c4cn(C)nc34)nc2c(C)n1 [Compound 470, 4-(2,6-diazaspiro[3.3]heptan-2-yl)-N-(6,8-dimethyl-imidazo-[1,2-a]-pyrazin-2-yl)-6-fluoro-2-methyl-indazole-7-carboxamide] | 100 to 1000 nM | 100 to 1000 nM | 100 to 1000 nM | 100 to 1000 nM | 100 to 1000 nM | 100 to 1000 nM | 100 to 1000 nM |
| CCNCC1CCN(c2cc(F)c(C(=O)Nc3cn4cc(C)nc(C)c4n3)c3nn(C)cc23)C1 (stereo not shown) [Compound 471, N-(6,8-dimethylimidazo-[1,2-a]-pyrazin-2-yl)-4-(3-[(ethylamino)methyl]-pyrrolidin-1-yl)-6-fluoro-2-methyl-indazole-7-carboxamide] | > 10000 nM | > 10000 nM | 100 to 1000 nM | 100 to 1000 nM | > 10000 nM | 100 to 1000 nM | 1000 to 10000 nM |
| COc1cc2nn(C)cc2cc1NC(=O)c1c(C)cc(N2CCC(NC3CC3)CC2)c2cn(C)nc12 [Compound 472, 4-[4-(cyclopropylamino)-1-piperidyl]-N-(6-methoxy-2-methyl-indazol-5-yl)-2,6-dimethylindazole-7-carboxamide] | > 10000 nM | > 10000 nM | 1000 to 10000 nM | > 10000 nM | > 10000 nM | > 10000 nM | 1000 to 10000 nM |
| Cc1cn2cc(NC(=O)c3c(C)cc(N4CCC(NC5CC5)CC4)c4cn(C)nc34)nc2c(C)n1 [Compound 473, 4-[4-(cyclopropylamino)-1-piperidyl]-N-(6,8-dimethylimidazo[1,2-a]pyrazin-2-yl)-2,6-dimethyl-indazole-7-carboxamide] | > 10000 nM | > 10000 nM | > 10000 nM | > 10000 nM | > 10000 nM | > 10000 nM | > 10000 nM |
| Cc1cn2cc(NC(=O)c3c(C4CC4)cc(N4CCC(NC5CC5)CC4)c4cn(C)nc34)nc2c(C)n1 [Compound 474, 6-cyclopropyl-4-[4-(cyclopropylamino)-1-piperidyl]-N-(6,8-dimethyl-imidazo[1,2-a]-pyrazin-2-yl)-2-methyl-indazole-7-carboxamide] | > 10000 nM | > 10000 nM | > 10000 nM | > 10000 nM | > 10000 nM | > 10000 nM | 1000 to 10000 nM |
| COc1cn2nc(C)cc2cc1NC(=O)c1ccc(N2CCC(NC3CC3)CC2)c2cn(C)nc12 [Compound 475, 4-[4-(cyclopropylamino)-1-piperidyl]-N-(6-methoxy-2-methyl-pyrazolo[1,5-a]pyridin-5-yl)-2-methyl-indazole-7-carboxamide] | > 10000 nM | > 10000 nM | 100 to 1000 nM | 100 to 1000 nM | > 10000 nM | 100 to 1000 nM | 1000 to 10000 nM |
| Cn1cc2cc(NC(=O)c3ccc(N4CCC(NC5CC5)CC4)c4cn(C)nc34)c(C(F)(F)F)cc2n1 [Compound 476, 4-[4-(cyclopropyl-amino)-1-piperidyl]-2-methyl-N-[2-methyl-6-(trifluoromethyl)-indazol-5-yl]indazole-7-carboxamide] | > 10000 nM | > 10000 nM | 1000 to 10000 nM | 1000 to 10000 nM | > 10000 nM | 1000 to 10000 nM | > 10000 nM |
